Literature values in patent publication US7132450B2, “Hepatic disorder suppressant” (Kagome Co., Ltd., priority 2000, dated 2006).

Experiments:
NO and O2^− generation = settings: reported in literature
[1] = reported in literature

SMILES | inhibitory effect on NO and O2^− generation (NO and O2^− generation) | growth suppressing effect [1]
CCCCC/C=C\C/C=C\CCCCC/C=C/C(=O)CC(O)COC(C)=O (stereo not drawn) [Compound 4] | has inhibitory effect on NO and O2^− generation | 
CCCCC/C=C\C/C=C\CCCCCCCC(=O)CC(O)COC(C)=O (stereo not drawn) [Compound 5, persin] | inhibitory effect on NO and O2^− generation | various growth suppressing effect
